Test results from US5705336A, “Assay for sensitivity of tumors to DNA-platinating chemotherapy” (The United States of America as represented by the …, priority 1995, dated 1998).

Experiments:
[1] = tested on: three human T lymphocyte cell lines (HuT 78, H9 and MOLT-4); test: cisplatin sensitivity compared across the three T cell lines; assay type: cell-based; conditions: across HuT 78, H9 and MOLT-4
Method: (§1) The expression of total ERCC1 mRNA, exon VIII^- mRNA and XPA mRNA was examined in three human T lymphocyte cell lines (HuT 78, H9 and MOLT-4), using essentially the methods described in Example 1. The cells were obtained from the American Type Culture Collection, Rockville, Md. Cells were cultured in RPMI-1640 medium supplemented with 10% heat-inactivated calf serum, 100 μg/ml penicillin, 100 μg/ml streptomycin and 2 mM glutamine.
(§2) All cell lines were assayed for sensitivity to cisplatin by measurement of the inhibition of growth following 3 day cisplatin exposures ranging from 0.5 to 100 μM. Cell lines were seeded at an initial cell density of 5×10^4 cells/ml, After continuous contact with drug for 3 days, cell counts obtained by Coulter counter were expressed as a percentage of counts obtained from aliquots of control cells, cultured in the absence of drug. Cells treated similarly but for the absence of drug served as controls. IC50 values were assessed as those drug levels effecting a 50% reduction in cell number as compared to Untreated cells.

H9 [2] = conditions: removed in 6 hrs following a 1 hr, 10 μM exposure, taken from ref. 26; cited from earlier work
MOLT-4 [3] = conditions: platination level that reduces CAT activity to 37% of control, taken from ref. 26; cited from earlier work
MOLT-4 [4] = test: inhibition of growth of MOLT-4 cells, 3 day continuous cisplatin exposure; assay type: cell-based, human; conditions: continuous exposure to cisplatin for 3 days, 50% reduction in cell number
Method: as §1, §2

HuT 78 [5] = conditions: platination level that reduces CAT activity to 37% of control, taken from ref. 26; cited from earlier work
H9 [6] = test: inhibition of growth of H9 cells, 3 day continuous cisplatin exposure; assay type: cell-based, human; conditions: continuous exposure to cisplatin for 3 days, 50% reduction in cell number
Method: as §1, §2

MOLT-4 [7] = conditions: removed in 6 hrs following a 1 hr, 10 μM exposure, taken from ref. 26; cited from earlier work
H9 [8] = conditions: platination level that reduces CAT activity to 37% of control, taken from ref. 26; cited from earlier work
HuT 78 [9] = test: inhibition of growth of HuT 78 cells, 3 day continuous cisplatin exposure; assay type: cell-based, human; conditions: continuous exposure to cisplatin for 3 days, 50% reduction in cell number
Method: as §1, §2

HuT 78 [10] = conditions: removed in 6 hrs following a 1 hr, 10 μM exposure, taken from ref. 26; cited from earlier work

## N.N.[Cl][Pt][Cl] [cisplatin]
[1]
  cisplatin sensitivity varied by: about 3 fold
H9 [2]
  Cellular DNA Repair (pg Pt/μg DNA removed in 6 hrs): 3.9 pg Pt/μg DNA
MOLT-4 [3]
  Reactivation of platinated plasmid Bo: 13 adducts/plasmid
MOLT-4 [4]
  IC50: 330 nM
HuT 78 [5]
  Reactivation of platinated plasmid Bo: 22 adducts/plasmid
H9 [6]
  IC50: 450 nM
MOLT-4 [7]
  Cellular DNA Repair (pg Pt/μg DNA removed in 6 hrs): 2.3 pg Pt/μg DNA
H9 [8]
  Reactivation of platinated plasmid Bo: 18 adducts/plasmid
HuT 78 [9]
  IC50: 830 nM
HuT 78 [10]
  Cellular DNA Repair (pg Pt/μg DNA removed in 6 hrs): 5.6 pg Pt/μg DNA
